Converted amounts (≈) assume the structure as drawn. The source made the active and inactive calls. No cut-off for these calls is given here.

Experiment [1] has as its system Rhodotorula glutinis. Nature of the experiment: Antifungal activity against Rhodotorula glutinis DSM 10134 incubated for 48 hrs by broth microdilution method. The class given is functional.
The test system of experiment [2] is Schizosaccharomyces pombe. Nature of the experiment: Antifungal activity against Schizosaccharomyces pombe DSM 70572 incubated for 48 hrs by broth microdilution method. The class given is functional. A general note: Broth dilution looks for growth in wells or tubes with falling amounts of substance.
For experiment [3], the system named is Candida albicans. Nature of the experiment: Antifungal activity against Candida albicans DSM 1665 incubated for 48 hrs by broth microdilution method. Format: functional.
The test system of experiment [4] is Mucor hiemalis. Briefly: Antifungal activity against Mucor hiemalis DSM 2656 incubated for 48 hrs by broth microdilution method. The class given is functional.
The test system of experiment [5] is Wickerhamomyces anomalus. Briefly: Antifungal activity against Pichia anomala DSM 6766 incubated for 48 hrs by broth microdilution method. Format: functional.
The subject of experiment [6] is Mucor hiemalis. Nature of the experiment: Antifungal activity against Mucor hiemalis DSM 2656 at 66 ug/ml incubated for 48 hrs by broth microdilution method. Format: functional, organism-based.
The test system of experiment [7] is Rhodotorula glutinis. Briefly: Antifungal activity against Rhodotorula glutinis DSM 10134 at 66 ug/ml incubated for 48 hrs by broth microdilution method. The class given is functional, organism-based.
The next experiment has as its system SK-OV-3. Nature of the experiment: Cytotoxicity against human SKOV3 cells assessed as reduction in cell growth incubated for 5 days by MTT assay. Format: functional, cell-based. Background: Tetrazolium assays rely on reduction of a dye to a coloured formazan, in cell work by metabolically active cells.
The next experiment deals with A-431. Nature of the experiment: Cytotoxicity against human A431 cells assessed as reduction in cell growth incubated for 5 days by MTT assay. Format: functional, cell-based.
The subject of experiment [8] is Candida albicans. Briefly: Antifungal activity against Candida albicans DSM 1665 at 66 ug/ml incubated for 48 hrs by broth microdilution method. The class given is functional, organism-based.
The subject of the next experiment is Caenorhabditis elegans. Nature of the experiment: Nematicidal activity against Caenorhabditis elegans incubated for 18 hrs. The class given is functional. To be noted: for LC50: read-out: LD50 (the source's name).
The test system of a further experiment is A549. Nature of the experiment: Cytotoxicity against human A549 cells assessed as reduction in cell growth incubated for 5 days by MTT assay. Format: functional, cell-based.
The subject of experiment [9] is Bacillus subtilis. Briefly: Antibacterial activity against Bacillus subtilis DSM 10 at 66 ug/ml incubated for 24 hrs by broth microdilution method. The class given is functional, organism-based.
Experiment [10] relates to Micrococcus luteus. Briefly: Antibacterial activity against Micrococcus luteus DSM 1790 at 66 ug/ml incubated for 24 hrs by broth microdilution method. The class given is functional, organism-based.
Experiment [11] concerns Mycolicibacterium smegmatis. Nature of the experiment: Antibacterial activity against Mycobacterium smegmatis ATCC 700084 at 66 ug/ml incubated for 24 hrs by broth microdilution method. Format: functional, organism-based.
For a further experiment, the system named is KB 3-1. Briefly: Cytotoxicity against human KB3-1 cells assessed as reduction in cell growth incubated for 5 days by MTT assay. The class given is functional, cell-based.
A further experiment deals with PC-3. Briefly: Cytotoxicity against human PC3 cells assessed as reduction in cell growth incubated for 5 days by MTT assay. The class given is functional, cell-based.
For experiment [12], the system named is Escherichia coli. Briefly: Antibacterial activity against Escherichia coli DSM 1116 at 66 ug/ml incubated for 24 hrs by broth microdilution method. The class given is functional, organism-based.
Experiment [13] has as its system Pseudomonas aeruginosa. Nature of the experiment: Antibacterial activity against Pseudomonas aeruginosa DSM PA14 at 66 ug/ml incubated for 24 hrs by broth microdilution method. The class given is functional, organism-based.
The next experiment deals with Staphylococcus aureus. Briefly: Antibacterial activity against Staphylococcus aureus DSM 346 incubated for 24 hrs by broth microdilution method. Format: functional. To be noted: DSM 346, 24 h.
The test system of experiment [14] is Wickerhamomyces anomalus. Briefly: Antifungal activity against Pichia anomala DSM 6766 at 66 ug/ml incubated for 48 hrs by broth microdilution method. Format: functional, organism-based.
For experiment [15], the system named is Schizosaccharomyces pombe. Briefly: Antifungal activity against Schizosaccharomyces pombe DSM 70572 at 66 ug/ml incubated for 48 hrs by broth microdilution method. Format: functional, organism-based.
Experiment [16] concerns Chromobacterium violaceum. Nature of the experiment: Antibacterial activity against Chromobacterium violaceum DSM 30191 at 66 ug/ml incubated for 24 hrs by broth microdilution method. The class given is functional, organism-based.
In another experiment the test system is MCF7. Nature of the experiment: Cytotoxicity against human MCF7 cells assessed as reduction in cell growth incubated for 5 days by MTT assay. Format: functional, cell-based.
The next experiment relates to L929. Briefly: Cytotoxicity against mouse L929 cells assessed as reduction in cell growth incubated for 5 days by MTT assay. Format: functional, cell-based.
Experiment [17] concerns Pseudomonas aeruginosa. Briefly: Antibacterial activity against Pseudomonas aeruginosa DSM PA14 incubated for 24 hrs by broth microdilution method. Format: functional, organism-based.
Experiment [18] concerns Bacillus subtilis. Briefly: Antibacterial activity against Bacillus subtilis DSM 10 incubated for 24 hrs by broth microdilution method. Format: functional. The following applies: DSM 10, 24 h.
Experiment [19] has as its system Micrococcus luteus. Briefly: Antibacterial activity against Micrococcus luteus DSM 1790 incubated for 24 hrs by broth microdilution method. The class given is functional. The following applies: DSM 1790, 24 h.
Experiment [20] relates to Chromobacterium violaceum. Nature of the experiment: Antibacterial activity against Chromobacterium violaceum DSM 30191 incubated for 24 hrs by broth microdilution method. Format: functional. To be noted: DSM 30191, 24 h.
Experiment [21] deals with Escherichia coli. Nature of the experiment: Antibacterial activity against Escherichia coli DSM 1116 incubated for 24 hrs by broth microdilution method. To be noted: DSM 1116, 24 h. The class given is functional.
In experiment [22] the test system is Mycolicibacterium smegmatis. Nature of the experiment: Antibacterial activity against Mycobacterium smegmatis ATCC 700084 incubated for 24 hrs by broth microdilution method. The class given is functional. The following applies: ATCC 700084, 24 h.
The mark [23] stands for this setting: Homo sapiens, SK-OV-3, 120 h, read-out: IC50.
Where [24] appears, read: Homo sapiens, A-431, 120 h, read-out: IC50.
[25] abbreviates: Homo sapiens, A549, 120 h, read-out: IC50.
Setting [26] is: Homo sapiens, KB 3-1, 120 h, read-out: IC50.
[27] abbreviates: Homo sapiens, PC-3, 120 h, read-out: IC50.
The mark [28] stands for this setting: Homo sapiens, MCF7, 120 h, read-out: IC50.
The mark [29] stands for this setting: Mus musculus, L929, 120 h, read-out: IC50.

For NYSTATIN, the MIC (in general, the lowest concentration found to suppress growth) in the experiment on Rhodotorula glutinis [1] turned out to be 1 µg/mL; in [2], 8.3 µg/mL; against Candida albicans [3] it was 8.3 µg/mL; with Mucor hiemalis [4] it was 4.2 µg/mL; in the experiment on Wickerhamomyces anomalus [5], 8.3 µg/mL.

Take `O=C(O)/C=C/C=C1\[C@@H](O)C=CC12Oc1cccc3cccc(c13)O2`: the outcome (in the experiment on Mucor hiemalis [6]; in the experiment with Rhodotorula glutinis [7]; with Candida albicans [8]; with Bacillus subtilis [9]; in the experiment on Micrococcus luteus [10]; in [11]) was inactive. For the same compound, the outcome (in the experiment on Escherichia coli [12]; in the experiment on Pseudomonas aeruginosa [13]; in the experiment with Wickerhamomyces anomalus [14]; in experiment [15]; in experiment [16]) was inactive. Besides, the IC50 result with SK-OV-3 (sk-ov-3), in the experiment on A-431 (a-431), in the experiment on A549 (a549), in the experiment on KB 3-1 (kb 3-1), in the experiment with PC-3 (pc-3) and in the experiment with MCF7 (mcf7) was “Not Active” each time. In addition, the IC50 – broadly, the concentration needed to halve the response being measured – in the experiment with L929 (l929) is “Not Active”. The LC50 in the experiment with Caenorhabditis elegans stood at 50 µg/mL (≈ 155 µM). Besides, in the experiment on Staphylococcus aureus, the MIC worked out at 66.6 µg/mL (≈ 207 µM).

In the experiment with Caenorhabditis elegans, IVERMECTIN came in with an LD50 of 1 µg/mL.

As for `C/C(=C\c1csc(C)n1)[C@@H]1C[C@@H]2O[C@]2(C)CCC[C@H](C)[C@H](O)[C@@H](C)C(=O)C(C)(C)[C@@H](O)CC(=O)O1` [PATUPILONE], the IC50 in the experiment on SK-OV-3 (setting [23]) came out at 0.28 nM; in the experiment with A-431 (setting [24]), 0.079 nM; in the experiment on A549 (setting [25]), 0.069 nM; in the experiment with KB 3-1 (setting [26]), 0.089 nM; in the experiment on PC-3 (setting [27]), 1.6 nM; with MCF7 (setting [28]), 0.24 nM. Also, the concentration for half-maximal inhibition (IC50) in the experiment on L929 (setting [29]) is 1.4 nM.

In turn, GENTAMICIN showed an MIC in the experiment on Pseudomonas aeruginosa [17] of 1 µg/mL.

As to `O=C(O)/C=C/C[C@H]1[C@@H](O)C=CC12Oc1cccc3cccc(c13)O2`, the result (in the experiment on Mucor hiemalis [6]; in the experiment with Rhodotorula glutinis [7]; in the experiment on Candida albicans [8]; with Bacillus subtilis [9]; in the experiment with Micrococcus luteus [10]; in experiment [11]) was inactive. Besides, the result (in the experiment on Escherichia coli [12]; with Pseudomonas aeruginosa [13]; in the experiment on Wickerhamomyces anomalus [14]; in [15]; in experiment [16]) was inactive. For the same compound, the IC50 entry in the experiment on SK-OV-3 (sk-ov-3) was “Not Active”; in the experiment on A-431 (a-431), “Not Active”; in the experiment on A549 (a549) it was “Not Active”; in the experiment on KB 3-1 (setting [26]) it was 40100 nM; with PC-3 (pc-3), “Not Active”; in the experiment with MCF7 (mcf7), “Not Active”. Moreover, the IC50 result with L929 (l929) is “Not Active”. Besides, the LC50 with Caenorhabditis elegans was 25 µg/mL (≈ 77.1 µM). Besides, the MIC in the experiment with Staphylococcus aureus is 66.6 µg/mL (≈ 205 µM).

Take `O=C(O)/C=C/C=C1\C(=O)C=CC12Oc1cccc3cccc(c13)O2`: the MIC in the experiment on Bacillus subtilis [18] was 4.2 µg/mL (≈ 13.1 µM); with Rhodotorula glutinis [1] (DSM 10134, 48 h), 33.3 µg/mL (≈ 104 µM); in experiment [2] (DSM 70572, 48 h), 33.3 µg/mL (≈ 104 µM); in the experiment on Micrococcus luteus [19] it was 8.3 µg/mL (≈ 25.9 µM); with Staphylococcus aureus, 4.2 µg/mL (≈ 13.1 µM); in the experiment on Mucor hiemalis [4] (DSM 2656, 48 h), 16.7 µg/mL (≈ 52.1 µM). In addition, the half-inhibitory concentration (IC50) in the experiment on SK-OV-3 (setting [23]) amounted to 600 nM; with A-431 (setting [24]) it was 200 nM; with A549 (setting [25]), 2200 nM; in the experiment with KB 3-1 (setting [26]), 800 nM; in the experiment on PC-3 (setting [27]) it was 900 nM; with MCF7 (setting [28]) it was 400 nM. The IC50 with L929 (setting [29]) turned out to be 600 nM. The outcome (in the experiment with Candida albicans [8]; in [11]; in the experiment with Escherichia coli [12]; with Pseudomonas aeruginosa [13]; in the experiment on Wickerhamomyces anomalus [14]; in experiment [16]) was inactive. The LC50 in the experiment with Caenorhabditis elegans was 50 µg/mL (≈ 156 µM).

As to `CN(C)[C@@H]1C(=O)C(C(N)=O)=C(O)[C@@]2(O)C(=O)C3=C(O)c4c(O)cccc4[C@@](C)(O)[C@H]3[C@H](O)[C@@H]12.Cl`, the MIC stood at 2.4 µg/mL in the experiment with Bacillus subtilis [18]; 4.1 µg/mL in experiment [20]; 4.2 µg/mL against Micrococcus luteus [19]; 2.1 µg/mL in the experiment on Staphylococcus aureus; 33.3 µg/mL in the experiment with Escherichia coli [21].

With `O=C(O)/C=C/C=C1\[C@@H](O)C[C@H](O)C12Oc1cccc3cccc(c13)O2`, the result (in the experiment on Mucor hiemalis [6]; with Rhodotorula glutinis [7]; in the experiment on Candida albicans [8]; with Bacillus subtilis [9]; with Micrococcus luteus [10]; in experiment [11]) was inactive. Further, the result (with Escherichia coli [12]; in the experiment on Pseudomonas aeruginosa [13]; in the experiment on Wickerhamomyces anomalus [14]; in experiment [15]; in experiment [16]) was inactive. The IC50 result in the experiment on SK-OV-3 (sk-ov-3), with A-431 (a-431), in the experiment on A549 (a549), in the experiment with KB 3-1 (kb 3-1), with PC-3 (pc-3) and in the experiment on MCF7 (mcf7) was “Not Active” throughout. Moreover, the IC50 entry with L929 (l929) is listed as “Not Active”. The LC50 with Caenorhabditis elegans is 50 µg/mL (≈ 147 µM). Also, it took 66.6 µg/mL (≈ 196 µM) to inhibit growth against Staphylococcus aureus (MIC).

Consider `NC[C@H]1O[C@H](O[C@H]2[C@H](O)[C@@H](O[C@H]3O[C@H](CO)[C@@H](O)[C@H](N)[C@H]3O)[C@H](N)C[C@@H]2N)[C@H](O)[C@@H](O)[C@@H]1O` [KANAMYCIN], for which the MIC in [22] came out at 4.1 µg/mL (≈ 8.46 µM).

The values above are taken from ChEMBL document CHEMBL4414615, “Sparticolins A-G, Biologically Active Oxidized Spirodioxynaphthalene Derivatives from the Ascomycete Sparticola junci” (J Nat Prod, 2019).
